For orientation: IC50 means the point on the concentration scale where inhibition reaches its midpoint.

The target of one assay is P. pyralis FLuc (Photinus pyralis, UniProt P08659). As to the kind of experiment: FLuc enzymatic luminescence assay, P. pyralis FLuc. It counts as biochemical. The note with it: FLuc enzymatic assay; for Efficacy (%) FLuc E: Clade S follow-up; for IC50: read-out: IC50 or SDR50 (mM) FLuc E. In outline:
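Runs with and without 10 µM ATP: compounds were pre-incubated with FLuc (1–10 nM, PBS pH 7.4) at ambient temperature, light-protected, for 30–60 min. Luminescence was imaged 5 min after adding 10 µM D-luciferin (final). Inhibition was scaled between DMSO neutral and no-enzyme controls.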

The next assay has as its target T1, NLuc (Oplophorus gracilirostris, UniProt Q9GV45, A31E/A60N/A81I/F95D/I117V/K70R/L54V/L99Q/M102K/N193R/P142E/Q151K/Q38R/Q45L/V71I/Y165I).
T1 construct: His tag (inferred from IMAC purification); made in house; host or cells: E. coli
Format: biochemical. The settings on record: - ATP. As for the experimental part:
Compounds and controls were added to plates as described in Supplementary Data 8. Nano-Glo luciferase assay reagent (Promega) was prepared fresh according to manufacturer’s protocol, filtered and added at 3 μL per well across assay plates with a BioRaptr2 dispenser. Enzyme was incubated with Nano-Glo reagent for 10 min and NLuc luminescence was read on a ViewLux CCD imager (PerkinElmer), with 1 s exposure with medium gain and 2x binning. Data were normalized to average no enzyme control as 100% enzyme inhibition and average DMSO neutral control. See Supplementary Table 4 for additional details.
Supplementary Table 4. […]
Sequence Param eter Value Description […]
5 Detector ViewLux Read plate lum inescence (Exposure = 1- 10 sec; Gain = Medium -high; Speed = Slow;
Dispensing solution was diluted in 1X PBS, pH 7.4.
NanoLuc luciferase (NLuc) enzym atic lum inescence assay […]
Nano-Glo luciferase assay reagent (Prom ega, Cat # N1120) prepared according to m anufacturer’s recom m endations,
4 com ponents stored at -30 °C until use, and reagent prepared fresh for each assay.
syringe filter prior to dispense.

Assay [1] concerns the target FLuc-C-HiBiT (firefly luciferase) (Photinus pyralis, UniProt P08659, form not given/L550V). In words: SDR assay, FLuc-C-HiBiT. The note with it: SDR max. response, clade S. A general note: HiBiT is a short tag that completes a luciferase, so light tracks the accessible tagged protein.
Assay [2] addresses FLuc-C-NLuc (firefly luciferase) (Photinus pyralis, UniProt P08659, form not given/L550V). In words: SDR assay, FLuc-C-NLuc. The note with it: - ATP.

T1 sequence (Q9GV45 other isoform, or with tags, fused parts or gaps with the stated changes): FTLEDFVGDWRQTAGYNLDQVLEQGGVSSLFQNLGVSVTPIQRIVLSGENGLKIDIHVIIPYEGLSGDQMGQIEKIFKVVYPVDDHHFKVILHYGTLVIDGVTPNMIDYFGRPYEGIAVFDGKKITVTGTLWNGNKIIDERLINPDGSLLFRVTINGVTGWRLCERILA
Sequence of FLuc-C-HiBiT (firefly luciferase) (P08659 2-550 L550V, form open): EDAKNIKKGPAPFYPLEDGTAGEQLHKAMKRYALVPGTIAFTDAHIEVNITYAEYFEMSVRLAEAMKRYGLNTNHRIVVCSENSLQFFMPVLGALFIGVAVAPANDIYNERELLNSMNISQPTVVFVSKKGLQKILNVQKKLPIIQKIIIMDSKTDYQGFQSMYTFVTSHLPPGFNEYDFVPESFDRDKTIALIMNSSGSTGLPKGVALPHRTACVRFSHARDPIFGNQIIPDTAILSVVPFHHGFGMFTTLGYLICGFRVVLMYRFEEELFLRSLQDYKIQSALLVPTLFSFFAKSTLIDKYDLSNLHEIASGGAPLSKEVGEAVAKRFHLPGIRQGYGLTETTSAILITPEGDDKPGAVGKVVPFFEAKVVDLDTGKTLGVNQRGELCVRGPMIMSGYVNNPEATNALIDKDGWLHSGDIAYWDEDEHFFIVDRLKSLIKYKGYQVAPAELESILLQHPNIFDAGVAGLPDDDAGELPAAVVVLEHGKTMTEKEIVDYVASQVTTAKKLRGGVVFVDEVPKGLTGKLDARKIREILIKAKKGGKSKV
Sequence of FLuc-C-NLuc (firefly luciferase) (P08659 2-550 L550V, form open): as above
Sequence of P. pyralis FLuc (P08659 whole entry): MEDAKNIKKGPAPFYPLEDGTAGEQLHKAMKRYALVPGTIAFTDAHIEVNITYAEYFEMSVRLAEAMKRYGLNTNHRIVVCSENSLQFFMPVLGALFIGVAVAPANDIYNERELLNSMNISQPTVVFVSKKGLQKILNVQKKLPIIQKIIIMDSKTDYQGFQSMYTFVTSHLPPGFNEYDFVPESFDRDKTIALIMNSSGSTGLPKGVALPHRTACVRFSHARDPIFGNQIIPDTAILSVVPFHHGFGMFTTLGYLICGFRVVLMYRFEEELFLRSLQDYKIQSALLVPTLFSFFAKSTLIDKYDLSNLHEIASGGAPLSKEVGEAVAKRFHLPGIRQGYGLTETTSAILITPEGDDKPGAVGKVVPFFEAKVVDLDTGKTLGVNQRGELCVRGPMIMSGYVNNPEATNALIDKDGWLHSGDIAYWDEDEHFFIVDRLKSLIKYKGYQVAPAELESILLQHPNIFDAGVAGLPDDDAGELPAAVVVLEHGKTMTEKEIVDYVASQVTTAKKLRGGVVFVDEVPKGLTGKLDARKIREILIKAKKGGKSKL

As to `O=C(NCc1ccccc1)C1CCN(C(=O)c2ncn3c2COC(c2ccc(F)cc2)C3)CC1` (stereo not drawn) [NCGC00449813-01], at P. pyralis FLuc, the “pIC50 or pSDR50 FLuc E” value is 4.91, the “Efficacy (%) FLuc E” value is reported as -31.52% and the IC50 is 0.0124 mM. The “Efficacy (%) NLuc (- ATP)” value at NLuc came out at 0.00%. In addition, in assay [1], the “% Activity (max response, + ATP)” value is 33.80% and the “% Activity (max response, - ATP)” value came out at 0.00%. The “Efficacy (%) FLuc-C-NLuc SDR (-ATP)” value in assay [2] is 0.00%.
With `Cc1ccc(CNC(=O)C2CCN(C(=O)c3ncn4c3COC(c3ccc(F)cc3)C4)CC2)cc1` (stereo not drawn) [NCGC00449814-01], the “Efficacy (%) FLuc E” value on P. pyralis FLuc was -11.84%. Moreover, at NLuc, the “Efficacy (%) NLuc (- ATP)” value was 0.00%. Moreover, in assay [1], the “% Activity (max response, + ATP)” value was 17.69% and the “% Activity (max response, - ATP)” value was 0.00%. In addition, the “Efficacy (%) FLuc-C-NLuc SDR (-ATP)” value in assay [2] came to 0.00%.
On to `CCc1ccc(CNC(=O)C2CCN(C(=O)c3ncn4c3COC(c3ccc(F)cc3)C4)CC2)cc1` (stereo not drawn) [NCGC00449815-01], for which, on P. pyralis FLuc, the “Efficacy (%) FLuc E” value is reported as -15.14%. The “Efficacy (%) NLuc (- ATP)” value on NLuc is reported as 0.00%. In assay [1], the “% Activity (max response, + ATP)” value is recorded as 20.00% and the “% Activity (max response, - ATP)” value is 0.00%. Also, in assay [2], the “Efficacy (%) FLuc-C-NLuc SDR (-ATP)” value is reported as 0.00%.
`O=C(NCc1ccccc1F)C1CCN(C(=O)c2ncn3c2COC(c2ccc(F)cc2)C3)CC1` (stereo not drawn) [NCGC00449818-01]: the “Efficacy (%) FLuc E” value on P. pyralis FLuc was -20.04%. For the same molecule, at NLuc, the “Efficacy (%) NLuc (- ATP)” value turned out to be 0.00%. Also, in assay [1], the “% Activity (max response, + ATP)” value is listed as 27.35% and the “% Activity (max response, - ATP)” value was found to be 0.00%. The “Efficacy (%) FLuc-C-NLuc SDR (-ATP)” value in assay [2] was determined as 0.00%.
With `O=C(NCc1ccc(F)cc1F)C1CCN(C(=O)c2ncn3c2COC(c2ccc(F)cc2)C3)CC1` (stereo not drawn) [NCGC00449819-01], the “Efficacy (%) FLuc E” value on P. pyralis FLuc is on record as -12.89%. Further, at NLuc, the “Efficacy (%) NLuc (- ATP)” value is recorded as 0.00%. In assay [1], the “% Activity (max response, + ATP)” value was determined as 18.59% and the “% Activity (max response, - ATP)” value is given as 0.00%. Moreover, the “Efficacy (%) FLuc-C-NLuc SDR (-ATP)” value in assay [2] is on record as 0.00%.
With `O=C(NCc1cc(F)cc(F)c1)C1CCN(C(=O)c2ncn3c2COC(c2ccc(F)cc2)C3)CC1` (stereo not drawn) [NCGC00449820-01], on P. pyralis FLuc, the “pIC50 or pSDR50 FLuc E” value was 4.96, the “Efficacy (%) FLuc E” value is -30.45% and the IC50 turned out to be 0.0111 mM. Further, on NLuc, the “Efficacy (%) NLuc (- ATP)” value is on record as 0.00%. For the same molecule, in assay [1], the “% Activity (max response, + ATP)” value came to 44.22% and the “% Activity (max response, - ATP)” value is 0.00%. Further, the “Efficacy (%) FLuc-C-NLuc SDR (-ATP)” value in assay [2] is listed as 0.00%.
For `CC(NC(=O)C1CCN(C(=O)c2ncn3c2COC(c2ccc(F)cc2)C3)CC1)c1ccccc1` (stereo not drawn) [NCGC00449824-01], the “Efficacy (%) FLuc E” value at P. pyralis FLuc is -12.35%. The “Efficacy (%) NLuc (- ATP)” value at NLuc came to 0.00%. For the same molecule, in assay [1], the “% Activity (max response, + ATP)” value was 0.00% and the “% Activity (max response, - ATP)” value came out at 0.00%. Also, the “Efficacy (%) FLuc-C-NLuc SDR (-ATP)” value in assay [2] came out at 0.00%.
Consider `CC(NC(=O)C1CCN(C(=O)c2ncn3c2COC(c2ccc(F)cc2)C3)CC1)c1ccc(F)cc1` (stereo not drawn) [NCGC00449825-01], for which, on P. pyralis FLuc, the “Efficacy (%) FLuc E” value was determined as 0.00%. The “Efficacy (%) NLuc (- ATP)” value at NLuc is on record as 0.00%. Also, in assay [1], the “% Activity (max response, + ATP)” value amounted to 0.00% and the “% Activity (max response, - ATP)” value is given as 0.00%. For the same molecule, the “Efficacy (%) FLuc-C-NLuc SDR (-ATP)” value in assay [2] is 0.00%.
`O=C(NCCc1ccccc1)C1CCN(C(=O)c2ncn3c2COC(c2ccc(F)cc2)C3)CC1` (stereo not drawn) [NCGC00449826-01]: the “Efficacy (%) FLuc E” value at P. pyralis FLuc is given as -26.42%. Besides, the “Efficacy (%) NLuc (- ATP)” value on NLuc is given as 0.00%. Besides, in assay [1], the “% Activity (max response, + ATP)” value worked out at 27.00% and the “% Activity (max response, - ATP)” value came to 0.00%. Moreover, the “Efficacy (%) FLuc-C-NLuc SDR (-ATP)” value in assay [2] worked out at 0.00%.
As to `CC(CNC(=O)C1CCN(C(=O)c2ncn3c2COC(c2ccc(F)cc2)C3)CC1)c1ccccc1` (stereo not drawn) [NCGC00449827-01], the “Efficacy (%) FLuc E” value on P. pyralis FLuc is -13.06%. Also, the “Efficacy (%) NLuc (- ATP)” value at NLuc was 0.00%. In addition, in assay [1], the “% Activity (max response, + ATP)” value was 15.49% and the “% Activity (max response, - ATP)” value worked out at 0.00%. Moreover, the “Efficacy (%) FLuc-C-NLuc SDR (-ATP)” value in assay [2] stood at 0.00%.

Values taken from PMC12064818, “A general assay platform to study protein pharmacology using ligand-dependent structural dynamics” (Nature Communications, 2025).
